Measured values published in PubChem BioAssay AID256 (DTP/NCI, 2004).
Values joined by “and” are separate entries in the source; they are usually repeats but may differ in a detail not shown here. Equal entries are not always repeated. Toxic doses and inconclusive results are not listed. How the source made its calls: active means survival T/C of 150% or more; inactive means T/C below 125% in these data.

Test system: CD2F1 mice, L1210 leukemia ip, survival T/C
Experiment: NCI In Vivo Anticancer Drug Screen. Data for tumor model L1210 Leukemia (intraperitoneal) in CD2F1 (CDF1) mice
Conditions: endpoint: mean survival time, higher = longer survival
Outline: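 Mice carrying a transplanted tumor received test compound or vehicle alone. The value is the measurement in the treated group divided by that in the vehicle-treated control group.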

[1] = dose: 12.5 mg/kg/injection, schedule: Q01DX009 (ip), vehicle: saline with Tween-80
[2] = dose: 25.0 mg/kg/injection, schedule: Q01DX009 (ip), vehicle: saline with Tween-80
[3] = dose: 50.0 mg/kg/injection, schedule: Q01DX009 (ip), vehicle: saline with Tween-80
[4] = dose: 100.0 mg/kg/injection, schedule: Q01DX009 (ip), vehicle: saline with Tween-80
[5] = dose: 200.0 mg/kg/injection, schedule: Q01DX009 (ip), vehicle: saline with Tween-80
[6] = dose: 400.0 mg/kg/injection, schedule: Q01DX009 (ip), vehicle: saline with Tween-80
[7] = dose: 100.0 mg/kg/injection, schedule: Q01DX001 (ip), vehicle: saline
[8] = dose: 200.0 mg/kg/injection, schedule: Q01DX001 (ip), vehicle: saline
[9] = dose: 400.0 mg/kg/injection, schedule: Q01DX001 (ip), vehicle: saline
[10] = dose: 100.0 mg/kg/injection, schedule: Q04DX003 (ip), vehicle: saline with Tween-80
[11] = dose: 200.0 mg/kg/injection, schedule: Q04DX003 (ip), vehicle: saline with Tween-80
[12] = dose: 100.0 mg/kg/injection, schedule: Q01DX001 (ip), vehicle: saline with Tween-80
[13] = dose: 200.0 mg/kg/injection, schedule: Q01DX001 (ip), vehicle: saline with Tween-80
[14] = dose: 400.0 mg/kg/injection, schedule: Q01DX001 (ip), vehicle: saline with Tween-80
[15] = dose: 100.0 mg/kg/injection, schedule: Q04DX002 (ip), vehicle: saline with Tween-80
[16] = dose: 200.0 mg/kg/injection, schedule: Q04DX002 (ip), vehicle: saline with Tween-80

Measured: T/C

O=c1[nH]c2c([N+](=O)[O-])cc(Br)cc2c2ccccc12
inactive: dose: 100.0 mg/kg/injection, schedule: Q01DX001 (ip), vehicle: carboxymethylcellulose (CMC) 100 % of control | dose: 200.0 mg/kg/injection, schedule: Q01DX001 (ip), vehicle: carboxymethylcellulose (CMC) 94 % of control | dose: 400.0 mg/kg/injection, schedule: Q01DX001 (ip), vehicle: carboxymethylcellulose (CMC) 100 % of control

O=CN(SSN(C=O)C1CCCCC1)C1CCCCC1
inactive: [1] 95 % of control and 103 % of control | [2] 100 % of control and 108 % of control | [3] 94 % of control and 105 % of control | [4] 94 % of control and 98 % of control | [5] 94 % of control and 103 % of control | [6] 93 % of control and 102 % of control

O=C(O)c1ccccc1.[Pb]
inactive: [7] 94 % of control | [8] 102 % of control | [9] 96 % of control

CCCCN(CCCC)CCC(=O)OCC
inactive: [4] 101 % of control | [5] 95 % of control | [6] 112 % of control

O=c1[nH]c(=O)n(C2CC(O)C(CO)O2)cc1-c1ccccc1 (stereo not given)
inactive: dose: 12.5 mg/kg/injection, schedule: Q01DX005 (ip), vehicle: distilled water + Tween-80 98 % of control | dose: 25.0 mg/kg/injection, schedule: Q01DX005 (ip), vehicle: distilled water + Tween-80 95 % of control | dose: 50.0 mg/kg/injection, schedule: Q01DX005 (ip), vehicle: distilled water + Tween-80 98 % of control | dose: 100.0 mg/kg/injection, schedule: Q01DX005 (ip), vehicle: distilled water + Tween-80 95 % of control | dose: 200.0 mg/kg/injection, schedule: Q01DX005 (ip), vehicle: distilled water + Tween-80 98 % of control

CN(C)P1(=O)NCC(C(C)(C)C)CO1 (stereo not given)
inactive: dose: 15.63 mg/kg/injection, schedule: Q01DX001 (ip), vehicle: water 97 % of control | dose: 31.25 mg/kg/injection, schedule: Q01DX001 (ip), vehicle: water 97 % of control | dose: 62.5 mg/kg/injection, schedule: Q01DX001 (ip), vehicle: water 97 % of control | dose: 125.0 mg/kg/injection, schedule: Q01DX001 (ip), vehicle: water 97 % of control | dose: 250.0 mg/kg/injection, schedule: Q01DX001 (ip), vehicle: water 101 % of control

O=C(Nc1ccc2c3c(cccc13)CC2)c1ccccc1
inactive: [10] 95 % of control | [11] 97 % of control | dose: 400.0 mg/kg/injection, schedule: Q04DX003 (ip), vehicle: saline with Tween-80 92 % of control

CNc1ccccc1CO
inactive: dose: 100.0 mg/kg/injection, schedule: Q01DX009 (ip), vehicle: other 107 % of control | dose: 200.0 mg/kg/injection, schedule: Q01DX009 (ip), vehicle: other 97 % of control | dose: 400.0 mg/kg/injection, schedule: Q01DX009 (ip), vehicle: other 103 % of control

CC(C)(CN=Cc1ccccc1[O-])N=Cc1ccccc1[O-].[O]=[V]
inactive: [1] 89 % of control | [2] 96 % of control | [3] 91 % of control | [10] 100 % of control | [11] 88 % of control

COC(=O)C1c2cc3c(c(O)c2CCC1(C)O)C(=O)c1c(O)cc2c(c1C3=O)OC1OC2(C)C(O)C(N(C)C)C1O (stereo not given)
inactive: [7] 103 % of control | [8] 104 % of control | [9] 104 % of control

C[Si](C)(C)/C(=N/Nc1ccc([N+](=O)[O-])cc1[N+](=O)[O-])c1ccccc1
inactive: dose: 100.0 mg/kg/injection, schedule: Q01DX001 (ip), vehicle: Klucel (hydroxypropylcellulose) (HPC) 97 % of control | dose: 200.0 mg/kg/injection, schedule: Q01DX001 (ip), vehicle: Klucel (hydroxypropylcellulose) (HPC) 95 % of control | dose: 400.0 mg/kg/injection, schedule: Q01DX001 (ip), vehicle: Klucel (hydroxypropylcellulose) (HPC) 92 % of control

CC(=O)OCCCC(C)Nc1ccnc2cc(Cl)ccc12 (stereo not given)
inactive: [3] 100 % of control | [4] 96 % of control | [10] 96 % of control | [5] 96 % of control | [11] 98 % of control

CC(=O)c1cccc(OC(=O)c2ccccc2)c1
inactive: [12] 104 % of control | [4] 97 % of control | [13] 94 % of control | [5] 94 % of control | [14] 104 % of control | [6] 91 % of control

CNC(=S)N1CCSN1NC
inactive: [15] 91 % of control | [16] 95 % of control | dose: 400.0 mg/kg/injection, schedule: Q04DX002 (ip), vehicle: saline with Tween-80 86 % of control

C=Cc1c(C)c2cc3[nH]c(cc4nc(cc5nc(cc1[nH]2)C(C)=C5CCC(=O)O)C(CCC(=O)O)=C4C)c(C)c3C=C
inactive: [1] 88 % of control | [2] 88 % of control | [3] 88 % of control

CN(C)C=C1C(=O)NC(=O)NC1=O
inactive: [7] 91 % of control | [8] 87 % of control

CC(=O)N[C@H](CO)[C@H](O)c1ccc([N+](=O)[O-])cc1
inactive: dose: 75.0 mg/kg/injection, schedule: Q01DX009 (ip), vehicle: saline with Tween-80 96 % of control | dose: 150.0 mg/kg/injection, schedule: Q01DX009 (ip), vehicle: saline with Tween-80 96 % of control | dose: 300.0 mg/kg/injection, schedule: Q01DX009 (ip), vehicle: saline with Tween-80 95 % of control

O=C(OCc1ccccc1)c1cc([N+](=O)[O-])c(Cl)c([N+](=O)[O-])c1
inactive: [12] 101 % of control | [4] 97 % of control | [13] 97 % of control | [5] 98 % of control | [14] 98 % of control

CCOC(=O)/C=C/c1ccc(O)cc1
inactive: dose: 100.0 mg/kg/injection, schedule: Q04DX003 (ip), vehicle: Klucel (hydroxypropylcellulose) (HPC) 102 % of control | dose: 200.0 mg/kg/injection, schedule: Q04DX003 (ip), vehicle: Klucel (hydroxypropylcellulose) (HPC) 98 % of control | dose: 400.0 mg/kg/injection, schedule: Q04DX003 (ip), vehicle: Klucel (hydroxypropylcellulose) (HPC) 98 % of control

Cc1sc2ccccc2c2nc3ccccc3c1-2
inactive: [4] 106 % of control | [5] 104 % of control | [6] 107 % of control

CCOC(CNC(C)c1ccc2cc(OC)c(OC)cc2c1)OCC (stereo not given)
inactive: dose: 12.5 mg/kg/injection, schedule: Q01DX009 (ip), vehicle: Klucel (hydroxypropylcellulose) (HPC) 97 % of control | dose: 25.0 mg/kg/injection, schedule: Q01DX009 (ip), vehicle: Klucel (hydroxypropylcellulose) (HPC) 92 % of control | dose: 50.0 mg/kg/injection, schedule: Q01DX009 (ip), vehicle: Klucel (hydroxypropylcellulose) (HPC) 89 % of control | dose: 100.0 mg/kg/injection, schedule: Q01DX009 (ip), vehicle: Klucel (hydroxypropylcellulose) (HPC) 95 % of control | dose: 200.0 mg/kg/injection, schedule: Q01DX009 (ip), vehicle: Klucel (hydroxypropylcellulose) (HPC) 100 % of control | dose: 400.0 mg/kg/injection, schedule: Q01DX009 (ip), vehicle: Klucel (hydroxypropylcellulose) (HPC) 90 % of control

CC(CN=Cc1ccccc1O)N=Cc1ccccc1O.[Cu] (stereo not given)
inactive: dose: 25.0 mg/kg/injection, schedule: Q04DX002 (ip), vehicle: saline with Tween-80 96 % of control | dose: 50.0 mg/kg/injection, schedule: Q04DX002 (ip), vehicle: saline with Tween-80 103 % of control | [15] 100 % of control | [16] 103 % of control
